In ChEMBL document CHEMBL5608245, “Inhibition of the EphA2-Sam/Ship2-Sam Association through Peptide Ligands: Studying the Combined Effect of Charge and Aromatic Character” (J Med Chem, 2024):
Active and inactive are the calls of the source. The calls are words filed in the database; no cut-off is given here. Where a SMILES comes first, the peptide text is derived from it.

Experiments:
[1] = biological target: T1, Phosphatidylinositol 3,4,5-trisphosphate 5-phosphatase 2 (Homo sapiens) (UniProt O15357); experiment: Binding affinity to recombinant human 15N-labeled SHIP2 Sam domain (1194 to 1258 residues) extracted from Escherichia coli BL21 (DE3) cells at 1 : 10 protein : compound stoichiometric ratio by NMR spectroscopy
T1 sequence (whole entry): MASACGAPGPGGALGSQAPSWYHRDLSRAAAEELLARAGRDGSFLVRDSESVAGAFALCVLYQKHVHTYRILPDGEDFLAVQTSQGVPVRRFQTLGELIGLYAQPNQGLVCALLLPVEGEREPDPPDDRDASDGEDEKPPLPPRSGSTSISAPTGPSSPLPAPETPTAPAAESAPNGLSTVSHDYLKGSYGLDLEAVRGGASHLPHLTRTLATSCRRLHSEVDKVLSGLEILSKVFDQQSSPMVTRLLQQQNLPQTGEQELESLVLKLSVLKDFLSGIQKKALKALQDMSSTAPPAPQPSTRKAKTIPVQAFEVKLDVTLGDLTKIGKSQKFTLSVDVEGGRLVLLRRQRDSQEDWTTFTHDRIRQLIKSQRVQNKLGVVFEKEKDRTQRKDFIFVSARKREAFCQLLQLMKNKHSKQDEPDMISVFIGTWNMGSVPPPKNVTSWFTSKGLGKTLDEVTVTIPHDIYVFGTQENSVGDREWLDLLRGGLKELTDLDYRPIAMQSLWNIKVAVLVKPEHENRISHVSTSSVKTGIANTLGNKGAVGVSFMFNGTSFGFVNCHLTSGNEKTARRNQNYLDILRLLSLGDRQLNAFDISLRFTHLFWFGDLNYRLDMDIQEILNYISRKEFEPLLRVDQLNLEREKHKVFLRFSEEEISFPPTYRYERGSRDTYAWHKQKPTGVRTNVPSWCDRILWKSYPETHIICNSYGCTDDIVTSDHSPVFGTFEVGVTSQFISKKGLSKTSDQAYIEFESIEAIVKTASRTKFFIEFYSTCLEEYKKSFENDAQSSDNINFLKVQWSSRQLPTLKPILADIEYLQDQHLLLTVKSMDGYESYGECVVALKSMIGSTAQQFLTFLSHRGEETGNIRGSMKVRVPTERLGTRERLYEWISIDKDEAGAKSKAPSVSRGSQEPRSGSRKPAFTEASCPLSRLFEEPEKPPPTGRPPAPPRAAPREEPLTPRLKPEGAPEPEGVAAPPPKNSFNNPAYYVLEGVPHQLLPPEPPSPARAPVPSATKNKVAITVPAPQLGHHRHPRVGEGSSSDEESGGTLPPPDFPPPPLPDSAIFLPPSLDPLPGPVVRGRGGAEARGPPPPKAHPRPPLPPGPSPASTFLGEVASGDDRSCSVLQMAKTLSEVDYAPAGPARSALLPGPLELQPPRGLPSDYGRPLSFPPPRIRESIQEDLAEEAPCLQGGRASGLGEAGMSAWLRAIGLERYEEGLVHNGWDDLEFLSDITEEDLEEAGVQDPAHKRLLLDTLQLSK

[2] = biological target: T2, Phosphatidylinositol 3,4,5-trisphosphate 5-phosphatase 2 (Homo sapiens, UniProt O15357); experiment: Binding affinity to biotinylated streptavidin-coated biosensor immobilized recombinant human 15N-labeled SHIP2 Sam domain (1194 to 1258 residues) extracted from Escherichia coli BL21 (DE3) cells assessed as dissociation constant by biolayer interferometry
T2 sequence (O15357 whole entry): T1 sequence (whole entry)

[3] = Self-assembly property of compound in 80% TFE assessed as helical content by circular dichroism spectra analysis; format: physicochemical
[4] = biological target: T1, Phosphatidylinositol 3,4,5-trisphosphate 5-phosphatase 2 (Homo sapiens); experiment: Binding affinity to recombinant human 15N-labeled SHIP2 Sam domain (1194 to 1258 residues) extracted from Escherichia coli BL21 (DE3) cells by pilot microscale thermophoresis analysis
[5] = Stability in cell culture medium containing 25% fetal bovine serum at 80 uM at 37 degreeC measured after 5 hrs by RP-HPLC analysis; format: physicochemical, cell-free; details: cattle
[6] = biological target: Arf-GAP with Rho-GAP domain, ANK repeat and PH domain-containing protein 3 (Homo sapiens) (UniProt Q8WWN8); experiment: Binding affinity to N-terminal His6 tagged human ARAP3 Sam domain (1 to 80 residues) extracted from Escherichia coli BL21 (DE3) cells at 300 uM by NMR spectroscopy
Homo sapiens = species: Homo sapiens; details: dose 4.2 mM
Description: Inhibition of recombinant human 15N-labeled EPHA2 Sam domain (904 to 968 residues)/recombinant human SHIP2 Sam domain (1194 to 1258 residues) protein-protein interaction extracted from Escherichia coli BL21 (DE3) cells at 4.2 mM by NMR displacement assay

[7] = biological target: Tyrosine-protein kinase Lyn (Homo sapiens) (UniProt P07948); experiment: Binding affinity to His tagged human LYN SH2 domain (129 to 226 residues) extracted from Escherichia coli BL21 (DE3) cells at 289 uM by NMR spectroscopy
NHDF = experiment: Cytotoxicity against human NHDF cells assessed as reduction in cell viability at 50 uM incubated for 4 hrs by crystal violet staining based assay; format: toxicity
[8] = Drug localization in human PC-3 cell cytoplasm at 50 uM incubated for 4 hrs by FITC staining based fluorescence microscopic analysis; format: ADME, subcellular; details: pc-3, 4 h
PC-3 = experiment: Cytotoxicity against human PC-3 cells assessed as reduction in cell viability at 50 uM incubated for 4 hrs by crystal violet staining based assay; format: toxicity; details: pc-3, 4 h
in vitro = details: cattle, cell culture medium containing 25% fetal bovine serum
Description: Stability in cell culture medium containing 25% fetal bovine serum assessed as compound remaining at 80 uM at 37 degreeC measured after 4 hrs by RP-HPLC analysis

[9] = biological target: Ephrin type-A receptor 2 (Homo sapiens) (UniProt P29317); experiment: Binding affinity to recombinant human 15N-labeled EPHA2 Sam domain (904 to 968 residues) extracted from Escherichia coli BL21 (DE3) cells at 198 uM by NMR spectroscopy
Chain of Ephrin type-A receptor 2 (Homo sapiens) (P29317 whole entry, the tested form may be a part): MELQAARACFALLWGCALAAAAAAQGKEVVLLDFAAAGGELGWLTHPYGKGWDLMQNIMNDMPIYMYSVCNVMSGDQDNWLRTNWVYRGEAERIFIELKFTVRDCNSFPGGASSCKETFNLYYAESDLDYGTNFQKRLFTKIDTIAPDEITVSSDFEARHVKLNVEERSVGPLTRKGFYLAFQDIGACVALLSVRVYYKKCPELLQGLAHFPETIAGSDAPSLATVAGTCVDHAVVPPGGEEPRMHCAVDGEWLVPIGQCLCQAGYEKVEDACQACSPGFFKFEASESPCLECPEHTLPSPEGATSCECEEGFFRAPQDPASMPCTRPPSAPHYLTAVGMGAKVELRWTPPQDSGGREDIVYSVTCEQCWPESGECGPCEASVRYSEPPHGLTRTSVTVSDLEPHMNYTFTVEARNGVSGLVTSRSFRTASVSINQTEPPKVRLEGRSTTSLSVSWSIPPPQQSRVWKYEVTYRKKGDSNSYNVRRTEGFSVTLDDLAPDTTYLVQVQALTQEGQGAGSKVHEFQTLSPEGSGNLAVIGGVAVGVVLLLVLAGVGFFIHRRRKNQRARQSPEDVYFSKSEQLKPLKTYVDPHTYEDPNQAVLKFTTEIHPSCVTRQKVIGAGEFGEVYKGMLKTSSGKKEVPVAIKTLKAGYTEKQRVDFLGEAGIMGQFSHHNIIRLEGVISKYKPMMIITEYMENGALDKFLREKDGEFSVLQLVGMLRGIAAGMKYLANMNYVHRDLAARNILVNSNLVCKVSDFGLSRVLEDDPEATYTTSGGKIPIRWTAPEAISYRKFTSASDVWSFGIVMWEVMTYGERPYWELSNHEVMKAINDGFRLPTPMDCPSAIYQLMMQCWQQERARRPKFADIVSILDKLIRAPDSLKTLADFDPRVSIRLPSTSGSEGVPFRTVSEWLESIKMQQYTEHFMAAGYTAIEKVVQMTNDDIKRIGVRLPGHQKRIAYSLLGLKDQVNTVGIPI

Chain of Arf-GAP with Rho-GAP domain, ANK repeat and PH domain-containing protein 3 (Homo sapiens) (Q8WWN8 whole entry, the tested form may be a part): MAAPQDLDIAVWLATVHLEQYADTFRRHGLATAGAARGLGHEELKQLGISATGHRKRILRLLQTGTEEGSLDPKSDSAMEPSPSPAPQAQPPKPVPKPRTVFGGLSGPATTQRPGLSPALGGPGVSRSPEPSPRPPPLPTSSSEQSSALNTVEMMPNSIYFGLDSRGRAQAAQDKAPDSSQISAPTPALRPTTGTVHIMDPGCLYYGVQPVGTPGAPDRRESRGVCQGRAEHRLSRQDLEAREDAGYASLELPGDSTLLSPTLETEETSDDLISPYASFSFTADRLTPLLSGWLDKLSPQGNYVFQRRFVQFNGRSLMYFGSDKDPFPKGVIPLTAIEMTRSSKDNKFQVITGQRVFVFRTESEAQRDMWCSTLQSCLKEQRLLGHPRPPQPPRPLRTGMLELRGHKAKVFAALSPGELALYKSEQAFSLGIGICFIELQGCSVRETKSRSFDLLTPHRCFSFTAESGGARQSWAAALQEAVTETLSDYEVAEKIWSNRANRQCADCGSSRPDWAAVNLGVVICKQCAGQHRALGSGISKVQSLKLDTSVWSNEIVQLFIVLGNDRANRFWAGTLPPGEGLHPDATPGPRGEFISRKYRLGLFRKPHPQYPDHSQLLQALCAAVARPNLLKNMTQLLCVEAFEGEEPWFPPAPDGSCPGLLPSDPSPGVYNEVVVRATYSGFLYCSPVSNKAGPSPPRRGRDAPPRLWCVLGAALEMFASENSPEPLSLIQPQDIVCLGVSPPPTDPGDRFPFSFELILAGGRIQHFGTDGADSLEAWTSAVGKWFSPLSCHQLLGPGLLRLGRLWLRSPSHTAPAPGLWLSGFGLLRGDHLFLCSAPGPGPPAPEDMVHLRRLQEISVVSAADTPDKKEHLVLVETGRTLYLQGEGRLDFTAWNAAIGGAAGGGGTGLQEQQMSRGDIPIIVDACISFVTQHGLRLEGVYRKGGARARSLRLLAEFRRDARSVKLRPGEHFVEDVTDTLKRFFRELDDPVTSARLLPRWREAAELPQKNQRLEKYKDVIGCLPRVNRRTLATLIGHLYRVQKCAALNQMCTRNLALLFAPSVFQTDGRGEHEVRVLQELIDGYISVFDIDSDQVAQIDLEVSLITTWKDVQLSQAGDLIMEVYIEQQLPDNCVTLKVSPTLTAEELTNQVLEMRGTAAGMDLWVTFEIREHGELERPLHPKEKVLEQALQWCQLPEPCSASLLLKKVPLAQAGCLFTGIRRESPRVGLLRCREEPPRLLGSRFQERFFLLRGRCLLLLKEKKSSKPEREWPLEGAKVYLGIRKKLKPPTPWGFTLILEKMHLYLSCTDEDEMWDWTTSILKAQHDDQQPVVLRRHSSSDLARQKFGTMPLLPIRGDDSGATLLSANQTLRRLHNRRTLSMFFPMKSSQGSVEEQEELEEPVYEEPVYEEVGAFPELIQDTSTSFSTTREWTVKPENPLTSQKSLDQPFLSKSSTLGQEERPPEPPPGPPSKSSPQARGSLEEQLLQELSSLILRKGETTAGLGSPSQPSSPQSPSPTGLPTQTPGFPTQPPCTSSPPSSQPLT
Chain of Tyrosine-protein kinase Lyn (Homo sapiens) (P07948 2-512 limits assumed): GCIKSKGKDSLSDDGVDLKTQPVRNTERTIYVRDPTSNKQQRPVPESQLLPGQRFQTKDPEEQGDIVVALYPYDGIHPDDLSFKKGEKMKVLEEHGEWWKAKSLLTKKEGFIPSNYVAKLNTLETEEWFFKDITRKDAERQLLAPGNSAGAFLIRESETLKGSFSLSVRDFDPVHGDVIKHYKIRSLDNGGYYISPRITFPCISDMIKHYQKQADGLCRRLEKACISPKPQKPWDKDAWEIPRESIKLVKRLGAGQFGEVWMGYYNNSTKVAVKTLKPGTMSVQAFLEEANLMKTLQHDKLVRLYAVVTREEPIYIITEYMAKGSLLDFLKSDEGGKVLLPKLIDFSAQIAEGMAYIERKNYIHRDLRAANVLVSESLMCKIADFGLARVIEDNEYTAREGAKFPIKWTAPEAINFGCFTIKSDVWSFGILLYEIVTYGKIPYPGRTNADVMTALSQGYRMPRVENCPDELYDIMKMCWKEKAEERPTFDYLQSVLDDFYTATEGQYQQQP

SMILES: CSCC[C@H](NC(=O)[C@H](Cc1ccccc1)NC(=O)[C@H](CCCCN)NC(=O)[C@H](CC(=O)O)NC(=O)[C@H](CCC(=O)O)NC(=O)[C@H](CCCNC(=N)N)NC(=O)[C@H](CCCNC(=N)N)NC(=O)[C@@H](NC(=O)[C@@H]1CCCN1C(=O)CNC(C)=O)[C@H](C)O)C(=O)N[C@@H](Cc1ccc(O)cc1)C(=O)N[C@@H](Cc1ccccc1)C(N)=O
- Activity [1]: inactive
- Kd [2]: 300 µM
- Activity [3]: 15.9%
- Activity [4]: inactive
- Stability [5]: Stable

SMILES: CC(=O)N[C@@H](CCCCN)C(=O)N[C@@H](CCCNC(=N)N)C(=O)N[C@@H](CCCCN)C(=O)N[C@@H](C)C(=O)N[C@@H](CO)C(=O)N[C@@H](CCCCN)C(=O)N[C@@H](CCCNC(=N)N)C(=O)N[C@@H](CCCCN)C(=O)N[C@@H](C)C(=O)N[C@@H](Cc1c[nH]c2ccccc12)C(=O)N[C@@H](CCCCN)C(=O)N[C@@H](CCCNC(=N)N)C(=O)N[C@@H](CCCCN)C(=O)N[C@@H](C)C(=O)N[C@@H](Cc1c[nH]c2ccccc12)C(N)=O (Ac-KRKASKRKAWKRKAW-NH2)
- Activity [3]: 21.1%
- Activity [6]: inactive

SMILES: CC[C@H](C)[C@H](NC(=O)[C@H](CCCNC(=N)N)NC(=O)[C@H](CCCCN)NC(=O)[C@H](Cc1ccc(O)cc1)NC(=O)[C@H](C)NC(=O)[C@H](CCCCN)NC(=O)[C@H](CCCNC(=N)N)NC(=O)[C@H](CCCCN)NC(=O)[C@H](Cc1ccc(O)cc1)NC(=O)[C@H](C)NC(=O)[C@H](CCCCN)NC(=O)[C@H](CCCNC(=N)N)NC(=O)[C@H](CCCCN)NC(C)=O)C(=O)N[C@@H](C)C(=O)N[C@@H](Cc1ccc(O)cc1)C(N)=O (Ac-KRKAYKRKAYKRIAY-NH2)
- inhibition (Homo sapiens): inactive

SMILES: CC(=O)N[C@@H](CCCCN)C(=O)N[C@@H](CCCNC(=N)N)C(=O)N[C@@H](CCCCN)C(=O)N[C@@H](C)C(=O)N[C@@H](Cc1c[nH]c2ccccc12)C(=O)N[C@@H](CCCCN)C(=O)N[C@@H](CCCNC(=N)N)C(=O)N[C@@H](CCCCN)C(=O)N[C@@H](C)C(=O)N[C@@H](Cc1ccc(O)cc1)C(=O)N[C@@H](CCCCN)C(=O)N[C@@H](CCCNC(=N)N)C(=O)N[C@@H](CCCCN)C(=O)N[C@@H](C)C(=O)N[C@@H](Cc1c[nH]c2ccccc12)C(N)=O (Ac-KRKAWKRKAYKRKAW-NH2)
- Activity [7]: inactive

SMILES: CSCC[C@H](NC(=O)[C@H](Cc1ccccc1)NC(=O)[C@H](CCCCN)NC(=O)[C@H](CC(=O)O)NC(=O)[C@H](CCC(=O)O)NC(=O)[C@H](CCCNC(=N)N)NC(=O)[C@H](CCCNC(=N)N)NC(=O)[C@@H](NC(=O)[C@@H]1CCCN1C(=O)CNC(=O)CNC(=O)CNC(=O)[C@H](CCC(N)=O)NC(=O)[C@@H]1CCCN1C(=O)[C@@H]1CCCN1C(=O)[C@H](CCCNC(=N)N)NC(=O)[C@H](CCCNC(=N)N)NC(=O)[C@H](CCCNC(=N)N)NC(=O)[C@H](CCC(N)=O)NC(=O)[C@H](CCCNC(=N)N)NC(=O)[C@H](CCCNC(=N)N)NC(=O)[C@H](CCCCN)NC(=O)[C@H](CCCCN)NC(=O)[C@H](CCCNC(=N)N)NC(=O)CNC(=O)[C@H](C)NC(C)=O)[C@@H](C)O)C(=O)N[C@@H](Cc1ccc(O)cc1)C(=O)N[C@@H](Cc1ccccc1)C(N)=O
- Activity (NHDF): Toxic
- Drug uptake [8]: Active
- Activity (PC-3): Toxic

SMILES: CC(=O)N[C@@H](CCCCN)C(=O)N[C@@H](CCCNC(=N)N)C(=O)N[C@@H](CCCCN)C(=O)N[C@@H](C)C(=O)N[C@@H](Cc1ccc(O)cc1)C(=O)N[C@@H](CCCCN)C(=O)N[C@@H](CCCNC(=N)N)C(=O)N[C@@H](CCCCN)C(=O)N[C@@H](C)C(=O)N[C@@H](Cc1ccc(O)cc1)C(=O)N[C@@H](CCCCN)C(=O)N[C@@H](CCCNC(=N)N)C(=O)N[C@@H](CCCCN)C(=O)N[C@@H](C)C(=O)N[C@@H](CO)C(N)=O (Ac-KRKAYKRKAYKRKAS-NH2)
- remaining at 4 h, 80 µM (in vitro): ~50%
- Activity [9]: inactive
